# Experimental data published in US9597316B2, “Indole compounds for use in treating inflammation and cancer” (BIOVENTURES LLC, priority 2012, dated 2017).
# Test system: NCI/ADR-RES (Ovarian Cancer)
# Assay: five dose-response growth inhibition/cytotoxicity, NCI/ADR-RES
# Assay type: cell-based, human
# Settings: not given
row,SMILES,GI50 [µM]
1,COc1ccc2c(c1)c(C=C1C(=O)NC(=S)NC1=O)cn2C(=O)c1cccc2ccccc12 [Compound 3w],3.14

# Same assay, conditions: read-out: LC50 (the source's name)
row,SMILES,CC50 [µM]
1,COc1ccc2c(c1)c(C=C1C(=O)NC(=S)NC1=O)cn2C(=O)c1cccc2ccccc12 [Compound 3w],> 100

# Test system: leukemia cell lines in the panel
# Assay: five dose-response growth inhibition, leukemia cell lines in the panel
# Assay type: cell-based, human
# Settings: all four leukemia cell lines in the panel; read-out: GI50 values in the range
# Protocol: (§1) The preliminary evaluation of compounds 3a-z was carried out at a single dose of 10 μM, against a panel of 60 human tumor cell lines, according to the procedure described by Rubinstein et al., Natl. Cancer. […] The human tumor cell line panel included leukemia, non-small cell lung, colon, central nervous system (CNS), melanoma, ovarian, renal, prostate, and breast cancer cell lines.
# (§2) Dose-response curves were created by plotting cytotoxic effect against the log10 of the drug concentration for each cell line. Cytotoxic effects of each compound were determined as GI50 and LC50 values, which represent the molar drug concentration for causing 50% growth inhibition, and the concentration that kills 50% of the cells, respectively.
row,SMILES,GI50 [µM]
1,COc1ccc2c(c1)c(C=C1C(=O)NC(=S)NC1=O)cn2C(=O)c1cccc2ccccc12 [Compound 3w],3.31 to 3.95

# Test system: not given
# Assay: not given
# Settings: in water; cited from earlier work
row,SMILES,pKa
1,O=C1CC(=O)NC(=S)N1 [2-Thiobarbituric acid],2.1

# Test system: SF-539 (CNS Cancer)
# Assay: five dose-response growth inhibition/cytotoxicity, SF-539
# Assay type: cell-based, human
# Settings: not given
row,SMILES,GI50 [µM]
1,COc1ccc2c(c1)c(C=C1C(=O)NC(=S)NC1=O)cn2C(=O)c1cccc2ccccc12 [Compound 3w],2.3

# Same assay, conditions: read-out: LC50 (the source's name)
row,SMILES,CC50 [µM]
1,COc1ccc2c(c1)c(C=C1C(=O)NC(=S)NC1=O)cn2C(=O)c1cccc2ccccc12 [Compound 3w],> 100

# Test system: HCT-116 (Colon Cancer)
# Assay: five dose-response growth inhibition/cytotoxicity, HCT-116
# Assay type: cell-based, human
# Settings: not given
row,SMILES,GI50 [µM]
1,COc1ccc2c(c1)c(C=C1C(=O)NC(=S)NC1=O)cn2C(=O)c1cccc2ccccc12 [Compound 3w],3.35

# Same assay, conditions: read-out: LC50 (the source's name)
row,SMILES,CC50 [µM]
1,COc1ccc2c(c1)c(C=C1C(=O)NC(=S)NC1=O)cn2C(=O)c1cccc2ccccc12 [Compound 3w],> 100

# Test system: M14 (Melanoma)
# Assay: five dose-response growth inhibition/cytotoxicity, M14
# Assay type: cell-based, human
# Settings: not given
row,SMILES,GI50 [µM]
1,COc1ccc2c(c1)c(C=C1C(=O)NC(=S)NC1=O)cn2C(=O)c1cccc2ccccc12 [Compound 3w],1.91

# Same assay, conditions: read-out: LC50 (the source's name)
row,SMILES,CC50 [µM]
1,COc1ccc2c(c1)c(C=C1C(=O)NC(=S)NC1=O)cn2C(=O)c1cccc2ccccc12 [Compound 3w],> 100

# Test system: HCT-15 (Colon Cancer)
# Assay: five dose-response growth inhibition/cytotoxicity, HCT-15
# Assay type: cell-based, human
# Settings: not given
row,SMILES,GI50 [µM]
1,COc1ccc2c(c1)c(C=C1C(=O)NC(=S)NC1=O)cn2C(=O)c1cccc2ccccc12 [Compound 3w],3.1

# Same assay, conditions: read-out: LC50 (the source's name)
row,SMILES,CC50 [µM]
1,COc1ccc2c(c1)c(C=C1C(=O)NC(=S)NC1=O)cn2C(=O)c1cccc2ccccc12 [Compound 3w],> 100

# Test system: HOP-62 (Non-Small Cell Lung Cancer)
# Assay: five dose-response growth inhibition/cytotoxicity, HOP-62
# Assay type: cell-based, human
# Settings: not given
row,SMILES,GI50 [µM]
1,COc1ccc2c(c1)c(C=C1C(=O)NC(=S)NC1=O)cn2C(=O)c1cccc2ccccc12 [Compound 3w],1.09

# Same assay, conditions: read-out: LC50 (the source's name)
row,SMILES,CC50 [µM]
1,COc1ccc2c(c1)c(C=C1C(=O)NC(=S)NC1=O)cn2C(=O)c1cccc2ccccc12 [Compound 3w],> 100

# Test system: CCRF-CEM (Leukemia)
# Assay: five dose-response growth inhibition/cytotoxicity, CCRF-CEM
# Assay type: cell-based, human
# Settings: not given
row,SMILES,GI50 [µM]
1,COc1ccc2c(c1)c(C=C1C(=O)NC(=S)NC1=O)cn2C(=O)c1cccc2ccccc12 [Compound 3w],3.31

# Same assay, conditions: read-out: LC50 (the source's name)
row,SMILES,CC50 [µM]
1,COc1ccc2c(c1)c(C=C1C(=O)NC(=S)NC1=O)cn2C(=O)c1cccc2ccccc12 [Compound 3w],> 100

# Test system: OVCAR-3 (Ovarian Cancer)
# Assay: five dose-response growth inhibition/cytotoxicity, OVCAR-3
# Assay type: cell-based, human
# Settings: not given
row,SMILES,GI50 [µM]
1,COc1ccc2c(c1)c(C=C1C(=O)NC(=S)NC1=O)cn2C(=O)c1cccc2ccccc12 [Compound 3w],2.38

# Same assay, conditions: read-out: LC50 (the source's name)
row,SMILES,CC50 [µM]
1,COc1ccc2c(c1)c(C=C1C(=O)NC(=S)NC1=O)cn2C(=O)c1cccc2ccccc12 [Compound 3w],20.9

# Test system: three melanoma cell lines
# Assay: five dose-response growth inhibition, melanoma cell lines
# Assay type: cell-based, human
# Settings: read-out: GI50 values in the range
# Protocol: as §1, §2
row,SMILES,GI50 [µM]
1,COc1ccc2c(c1)c(C=C1C(=O)NC(=S)NC1=O)cn2C(=O)c1cccc2ccccc12 [Compound 3w],1.91 to 3.8

# Test system: SR (Leukemia)
# Assay: five dose-response growth inhibition/cytotoxicity, SR
# Assay type: cell-based, human
# Settings: not given
row,SMILES,GI50 [µM]
1,COc1ccc2c(c1)c(C=C1C(=O)NC(=S)NC1=O)cn2C(=O)c1cccc2ccccc12 [Compound 3w],3.32

# Same assay, conditions: read-out: LC50 (the source's name)
row,SMILES,CC50 [µM]
1,COc1ccc2c(c1)c(C=C1C(=O)NC(=S)NC1=O)cn2C(=O)c1cccc2ccccc12 [Compound 3w],> 100

# Test system: HL-60(TB) (Leukemia)
# Assay: not given
# Settings: not given
row,SMILES,GI50 [µM]
1,COc1ccc2c(c1)c(C=C1C(=O)NC(=S)NC1=O)cn2C(=O)c1cccc2ccccc12 [Compound 3w],3.47

# Same assay, conditions: read-out: LC50
row,SMILES,CC50 [µM]
1,COc1ccc2c(c1)c(C=C1C(=O)NC(=S)NC1=O)cn2C(=O)c1cccc2ccccc12 [Compound 3w],> 100

# Test system: not listed separately
# Assay: five dose-response growth inhibition/cytotoxicity, UO-31
# Assay type: cell-based, human
# Settings: not given
row,SMILES,GI50 [µM]
1,COc1ccc2c(c1)c(C=C1C(=O)NC(=S)NC1=O)cn2C(=O)c1cccc2ccccc12 [Compound 3w],3.72

# Same assay, conditions: read-out: LC50 (the source's name)
row,SMILES,CC50 [µM]
1,COc1ccc2c(c1)c(C=C1C(=O)NC(=S)NC1=O)cn2C(=O)c1cccc2ccccc12 [Compound 3w],> 100

# Test system: U251 (CNS Cancer)
# Assay: five dose-response growth inhibition/cytotoxicity, U251
# Assay type: cell-based, human
# Settings: not given
row,SMILES,GI50 [µM]
1,COc1ccc2c(c1)c(C=C1C(=O)NC(=S)NC1=O)cn2C(=O)c1cccc2ccccc12 [Compound 3w],3.23

# Same assay, conditions: read-out: LC50 (the source's name)
row,SMILES,CC50 [µM]
1,COc1ccc2c(c1)c(C=C1C(=O)NC(=S)NC1=O)cn2C(=O)c1cccc2ccccc12 [Compound 3w],> 100

# Test system: LOX IMVI (Melanoma)
# Assay: five dose-response growth inhibition/cytotoxicity, LOX IMVI
# Assay type: cell-based, human
# Settings: not given
row,SMILES,GI50 [µM]
1,COc1ccc2c(c1)c(C=C1C(=O)NC(=S)NC1=O)cn2C(=O)c1cccc2ccccc12 [Compound 3w],3.8

# Same assay, conditions: read-out: LC50 (the source's name)
row,SMILES,CC50 [µM]
1,COc1ccc2c(c1)c(C=C1C(=O)NC(=S)NC1=O)cn2C(=O)c1cccc2ccccc12 [Compound 3w],> 100

# Test system: MDA-MB-435 (Melanoma)
# Assay: five dose-response growth inhibition/cytotoxicity, MDA-MB-435
# Assay type: cell-based, human
# Settings: MDA-MB-435
# Protocol: as §1, §2
row,SMILES,GI50 [µM]
1,COc1ccc2c(c1)c(C=C1C(=O)NC(=S)NC1=O)cn2C(=O)c1cccc2ccccc12 [Compound 3w],2.01

# Same assay, conditions: MDA-MB-435; read-out: LC50 (the source's name)
row,SMILES,CC50 [µM]
1,COc1ccc2c(c1)c(C=C1C(=O)NC(=S)NC1=O)cn2C(=O)c1cccc2ccccc12 [Compound 3w],12

# Test system: K-562 (Leukemia)
# Assay: five dose-response growth inhibition/cytotoxicity, K-562
# Assay type: cell-based, human
# Settings: not given
row,SMILES,GI50 [µM]
1,COc1ccc2c(c1)c(C=C1C(=O)NC(=S)NC1=O)cn2C(=O)c1cccc2ccccc12 [Compound 3w],3.52

# Same assay, conditions: read-out: LC50 (the source's name)
row,SMILES,CC50 [µM]
1,COc1ccc2c(c1)c(C=C1C(=O)NC(=S)NC1=O)cn2C(=O)c1cccc2ccccc12 [Compound 3w],> 100

# Test system: MOLT-4 (Leukemia)
# Assay: five dose-response growth inhibition/cytotoxicity, MOLT-4
# Assay type: cell-based, human
# Settings: not given
row,SMILES,GI50 [µM]
1,COc1ccc2c(c1)c(C=C1C(=O)NC(=S)NC1=O)cn2C(=O)c1cccc2ccccc12 [Compound 3w],3.95

# Same assay, conditions: read-out: LC50 (the source's name)
row,SMILES,CC50 [µM]
1,COc1ccc2c(c1)c(C=C1C(=O)NC(=S)NC1=O)cn2C(=O)c1cccc2ccccc12 [Compound 3w],> 100

# Test system: panel of 60 human tumor cell lines
# Assay: single dose (10 μM) evaluation against panel of 60 human tumor cell lines
# Assay type: cell-based
# Settings: any of the human cancer cell lines in the 60 cell panel
# Protocol: as §1
row,SMILES,cytotoxic potency against the 60 cell panel
1,COc1ccc2c(c1)c(C=C1C(=O)NC(=S)NC1=O)cn2C(=O)c1ccc2ccccc2c1 [Compound 3z],not identified as potent cytotoxic agents
2,O=C1NC(=S)NC(=O)C1=Cc1cn(C(=O)c2ccc3ccccc3c2)c2ccccc12 [Compound 3x],not identified as potent cytotoxic agents

# Test system: HOP-92 non-small cell lung cancer
# Assay: five dose-response growth inhibition/cytotoxicity, HOP-92
# Assay type: cell-based, human
# Settings: not given
row,SMILES,GI50 [µM]
1,COc1ccc2c(c1)c(C=C1C(=O)NC(=S)NC1=O)cn2C(=O)c1cccc2ccccc12 [Compound 3w],1.09

# Same assay, conditions: read-out: LC50 (the source's name)
row,SMILES,CC50 [µM]
1,COc1ccc2c(c1)c(C=C1C(=O)NC(=S)NC1=O)cn2C(=O)c1cccc2ccccc12 [Compound 3w],≥ 100
